# Reference: ChEMBL document CHEMBL3879915, “Methods of inhibiting PRMT5” (2014)
# Columns and labels:
# PRMT5/MEP50 complex = PRMT5/MEP50 complex (Homo sapiens, UniProt O14744); assay: Inhibition of recombinant human fetal brain FLAG-tagged PRMT5/full length human testis 6His-tagged MEP50 expressed in baculovirus infected insect Sf9 cells using human histone H4 (1 to 15 residues) as substrate preincubated for 30 mins followed by [3H]-SAM addition
# [1] = target: Protein arginine N-methyltransferase 5 (Homo sapiens, UniProt O14744); assay: Inhibition of PRMT5 in human Z138 cells assessed as decrease in di-methyl arginine levels after 96 hrs by Western blot method; assay type: cell-based
# Protein arginine N-methyltransferase 5, sequence (O14744 whole entry): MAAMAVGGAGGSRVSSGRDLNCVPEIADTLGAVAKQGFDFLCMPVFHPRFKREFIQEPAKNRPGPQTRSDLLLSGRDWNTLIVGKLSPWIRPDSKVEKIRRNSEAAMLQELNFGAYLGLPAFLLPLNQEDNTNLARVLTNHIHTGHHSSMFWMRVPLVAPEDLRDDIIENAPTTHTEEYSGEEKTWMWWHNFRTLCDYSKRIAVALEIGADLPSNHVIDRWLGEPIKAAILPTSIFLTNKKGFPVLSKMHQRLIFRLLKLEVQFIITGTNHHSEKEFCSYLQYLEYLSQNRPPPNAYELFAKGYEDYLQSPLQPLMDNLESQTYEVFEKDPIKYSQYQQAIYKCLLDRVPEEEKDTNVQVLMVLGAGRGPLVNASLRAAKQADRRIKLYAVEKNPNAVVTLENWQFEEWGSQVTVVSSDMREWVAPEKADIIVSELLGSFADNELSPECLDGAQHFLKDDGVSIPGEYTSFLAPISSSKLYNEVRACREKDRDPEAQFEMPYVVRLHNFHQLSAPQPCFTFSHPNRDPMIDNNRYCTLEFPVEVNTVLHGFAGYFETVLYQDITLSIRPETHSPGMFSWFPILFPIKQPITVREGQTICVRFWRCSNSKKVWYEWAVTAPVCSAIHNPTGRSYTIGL
# [2] = Antiproliferative activity against human Z138 cells assessed as inhibition of cell viability after 5 days by Cell-Titer Glo assay; assay type: functional, cell-based; conditions: Z-138, 120 h
# PRMT5/MEP50 complex, sequence (O14744 whole entry, the tested form may be a part): as the sequence (O14744 whole entry) above
# PRMT5/MEP50 complex, sequence (Q9BQA1 whole entry, further chain, the tested form may be a part): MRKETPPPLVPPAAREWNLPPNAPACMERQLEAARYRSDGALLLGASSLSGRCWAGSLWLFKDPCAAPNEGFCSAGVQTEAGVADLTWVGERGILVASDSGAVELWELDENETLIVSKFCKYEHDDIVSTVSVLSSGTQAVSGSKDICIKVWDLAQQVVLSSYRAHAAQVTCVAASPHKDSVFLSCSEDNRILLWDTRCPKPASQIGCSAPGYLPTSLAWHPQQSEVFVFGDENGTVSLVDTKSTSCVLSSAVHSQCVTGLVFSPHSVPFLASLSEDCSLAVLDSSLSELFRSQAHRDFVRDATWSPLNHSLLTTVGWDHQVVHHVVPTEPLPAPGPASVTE
Compound,IC50 (PRMT5/MEP50 complex) [nM],EC50 [1] [nM],EC50 [2] [nM]
CN1CCC(c2cccc(C(=O)NCC(O)CN3CCc4ccccc4C3)c2)C1 (stereo not given),< 100,101 to 1000,10000 to 50000
COC(COc1cccc(CNC2CCCC2)c1)CN1CCc2ccccc2C1 (stereo not given),1000 to 10000,> 20000,> 40000
NS(=O)(=O)c1cccc(C(=O)NCC(O)CN2CCc3ccccc3C2)c1 (stereo not given),101 to 1000,101 to 1000,> 20000
CCN(c1cccc(C(=O)NCC(O)CN2CCc3ccccc3C2)c1C)C1CCOCC1 (stereo not given),< 100,< 100,1000 to 10000
Cc1c(NC2CCOCC2)cccc1C(=O)NCC(O)CN1CCc2ccccc2C1 (stereo not given),< 100,< 100,1000 to 10000
O=C1CN(c2ccc(Cl)cc2)CCN1CC(O)CN1CCc2ccccc2C1 (stereo not given),< 100,101 to 1000,10000 to 50000
COc1ccc(-c2cccc(OCC(O)CN3CCc4ccccc4C3)c2)cc1 (stereo not given),101 to 1000,1000 to 10000,10000 to 40000
OC(COc1cccc(-c2ccc3cn[nH]c3c2)c1)CN1CCc2ccccc2C1 (stereo not given),101 to 1000,1000 to 10000,10000 to 40000
NS(=O)(=O)c1ccc(C(=O)NCC(O)CN2CCc3ccccc3C2)cc1 (stereo not given),101 to 1000,101 to 1000,> 20000
Cn1nccc1-c1cccc(C(=O)NCC(O)CN2CCc3ccccc3C2)c1 (stereo not given),< 100,< 100,1000 to 10000
COc1cccc(-c2cccc(OCC(O)CN3CCc4ccccc4C3)c2)c1 (stereo not given),101 to 1000,1000 to 10000,10000 to 40000
OC(COc1cccc(-c2ccc3c(c2)OCO3)c1)CN1CCc2ccccc2C1 (stereo not given),101 to 1000,10000 to 40000,10000 to 40000
O=C(NC[C@H](O)CN1CCc2ccccc2C1)c1cccc(-c2ccccn2)c1,< 100,< 100,101 to 1000
OCc1cccc(-c2cccc(OCC(O)CN3CCc4ccccc4C3)c2)c1 (stereo not given),101 to 1000,1000 to 10000,10000 to 40000
OC(COc1cccc(-c2ccccc2)c1)CN1CCc2ccccc2C1 (stereo not given),101 to 1000,1000 to 10000,> 20000
CN1CCC(c2ccccc2OCC(=O)NCC(O)CN2CCc3ccccc3C2)CC1 (stereo not given),101 to 1000,1000 to 10000,> 20000
O=C(COc1ccccc1-c1ncc[nH]1)NCC(O)CN1CCc2ccccc2C1 (stereo not given),101 to 1000,1000 to 10000,> 20000
CN(CC(O)CN1CCc2ccccc2C1)c1cccc(CNC2CCCC2)c1 (stereo not given),101 to 1000,101 to 1000,10000 to 40000

Compound,IC50 (PRMT5/MEP50 complex) [nM],EC50 [1] [nM],EC50 [2] [nM]
O=C(NCC(O)CN1CCc2ccccc2C1)c1cccc(NC2CCOCC2)c1 (stereo not given),< 100,< 100,101 to 1000
CN1CCCC1c1cccc(C(=O)NCC(O)CN2CCc3ccccc3C2)c1 (stereo not given),< 100,101 to 1000,10000 to 50000
OC(COc1cccc(-c2cccc3cccnc23)c1)CN1CCc2ccccc2C1 (stereo not given),< 100,101 to 1000,10000 to 40000
O=C(NCC(O)CN1CCc2ccccc2C1)c1ccccn1 (stereo not given),101 to 1000,101 to 1000,> 20000
Cn1cnc2ccc(-c3cccc(OCC(O)CN4CCc5ccccc5C4)c3)cc21 (stereo not given),< 100,101 to 10000,1000 to 20000
O=C(NCC(O)CN1CCc2ccccc2C1)c1cccc(N2CCNCC2)c1 (stereo not given),< 100,101 to 1000,10000 to 50000
CN(C)CCOc1cccc(C(=O)NCC(O)CN2CCc3ccccc3C2)c1 (stereo not given),< 100,101 to 1000,10000 to 50000
O=c1cc(Nc2ccccc2)ccn1C[C@@H](O)CN1CCc2ccccc2C1,101 to 1000,101 to 1000,> 20000
O=C1CN(c2cccc(N3CCOCC3)c2)CCN1CC(O)CN1CCc2ccccc2C1 (stereo not given),< 100,< 100,1000 to 10000
O=C(NC[C@H](O)CN1CCc2ccccc2C1)c1ccccc1,< 100,< 100,1000 to 10000
NC(=O)c1cccc(C(=O)NCC(O)CN2CCc3ccccc3C2)c1 (stereo not given),101 to 1000,1000 to 10000,> 20000
O=C(NC[C@@H](O)CN1CCc2ccccc2C1)c1cccc(NC2CCOCC2)c1,101 to 1000,101 to 1000,1000 to 10000
CS(=O)(=O)Nc1cccc(C(=O)NCC(O)CN2CCc3ccccc3C2)c1 (stereo not given),< 100,101 to 1000,1000 to 10000
O=C(NCC(O)CN1CCc2ccccc2C1)c1cccc(C2CCCN2)c1 (stereo not given),101 to 1000,1000 to 10000,> 20000
OC(COc1cccc(-c2cccc(F)c2F)c1)CN1CCc2ccccc2C1 (stereo not given),101 to 1000,10000 to 40000,10000 to 40000
O=C(c1ccc(Cn2nccc2-c2ccc(OCC(O)CN3CCc4ccccc4C3)cc2)cc1)N1CCCC1 (stereo not given),101 to 1000,1000 to 10000,10000 to 40000
O=C(NCC(O)CN1CCc2ccccc2C1)c1ccccc1-c1ccccn1 (stereo not given),101 to 1000,1000 to 10000,> 20000
